Each structure is given as a SMILES string. pEC50: −log10 of the molar value. A value given as a limit tells only on which side of the number the result lay.

The assay has as its target T1, hFXR (Homo sapiens, UniProt Q96RI1).
T1 construct: expressed in transfected cells; host or cells: CV-1 cells
T1 sequence (Q96RI1 1-486): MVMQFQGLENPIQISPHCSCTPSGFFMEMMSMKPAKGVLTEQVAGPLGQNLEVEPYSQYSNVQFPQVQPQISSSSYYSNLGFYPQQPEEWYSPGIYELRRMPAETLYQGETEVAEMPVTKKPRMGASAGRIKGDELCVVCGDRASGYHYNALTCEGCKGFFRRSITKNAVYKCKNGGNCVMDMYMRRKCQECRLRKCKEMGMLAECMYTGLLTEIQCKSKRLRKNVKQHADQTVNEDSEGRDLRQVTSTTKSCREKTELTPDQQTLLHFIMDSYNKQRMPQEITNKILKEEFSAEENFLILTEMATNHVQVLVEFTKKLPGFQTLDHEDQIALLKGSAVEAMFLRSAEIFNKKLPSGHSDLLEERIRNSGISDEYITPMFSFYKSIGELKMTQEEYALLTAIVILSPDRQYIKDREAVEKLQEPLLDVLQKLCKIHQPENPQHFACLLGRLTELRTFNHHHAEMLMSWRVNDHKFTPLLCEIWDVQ
T1 sequence (P19793 1-462 partner): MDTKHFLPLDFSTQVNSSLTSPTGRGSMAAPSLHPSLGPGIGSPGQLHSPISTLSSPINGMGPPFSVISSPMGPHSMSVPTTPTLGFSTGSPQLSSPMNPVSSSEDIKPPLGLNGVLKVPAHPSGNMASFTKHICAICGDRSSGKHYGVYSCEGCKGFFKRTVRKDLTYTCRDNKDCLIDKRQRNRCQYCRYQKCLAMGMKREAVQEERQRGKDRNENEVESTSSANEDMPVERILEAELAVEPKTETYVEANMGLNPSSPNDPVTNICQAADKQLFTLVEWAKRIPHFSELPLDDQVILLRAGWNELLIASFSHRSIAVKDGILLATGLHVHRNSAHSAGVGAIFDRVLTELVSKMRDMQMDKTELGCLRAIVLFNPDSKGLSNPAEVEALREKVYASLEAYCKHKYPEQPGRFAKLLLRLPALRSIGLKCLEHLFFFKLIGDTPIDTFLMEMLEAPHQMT
The experiment in a line: In Vitro FXR Assay (TK). The class given is cell-based. Particulars: CV-1 cells transfected with hFXR, hRXR, TK-ECRE-luc and pCMX-YFP; compounds incubated 18 hrs; luminescence. As for the experimental part:
CV-1 cells were seeded at a density of 2,000,000 cells in a T175 flask with DMEM+10% charcoal double-stripped FBS and incubated at 37° C. in 5% CO2 for 18 h (O/N).
After 18 h of incubation, the medium in the T175 flask was changed with fresh DMEM+10% charcoal super-stripped serum. In a polypropylene tube, 2500 μL OptiMEM (Life Technologies, Cat #31985-062) was combined with expression plasmids for hFXR, hRXR, TK-ECRE-luc and pCMX-YFP. The tube was then briefly vortexed and incubated at room temperature for 5 minutes. Transfection reagent (X-tremeGENE HP from Roche, Cat #06 366 236 001) was added to the OptiMEM/plasmid mixture vortexed and incubated at room temperature for 20 minutes. Following incubation, the transfection reagent/DNA mixture complex was added to cells in the T175 flask and the cells were incubated at 37° C. in 5% CO2 for 18 h (O/N).
Compounds were serially diluted in DMSO and added to transfected CV-1 cells. The cells were then incubated for 18 hrs. The next day cells were lysed and examined for luminescence.

Compound `COc1ccc(-c2ccc(CN(C(=O)CC(C)(C)C)c3nccc4cc(N5CCC(C#N)C5)ccc34)cc2)cc1C` (stereo not drawn) [Compound 6.13, N-(6-(3-Cyanopyrrolidin-1-yl)isoquinolin-1-yl)-N-((4′-methoxy-3′-methyl-[1,1′-biphenyl]-4-yl)methyl)-3,3-dimethylbutanamide] showed a pEC50 of no less than 6.00. The result for `COc1ccc(-c2ccc(CN(C(=O)CC(C)(C)C)c3nccc4cc(OC5CCNCC5)ccc34)cc2)cc1C` [Compound 28, N-((4′-Methoxy-3′-methyl-[1,1′-biphenyl]-4-yl)methyl)-3,3-dimethyl-N-(6-(piperidin-4-yloxy)isoquinolin-1-yl)butanamide] reads less than 5.00; that for `COc1ccc(-c2ccc(CN(C(=O)CC(C)(C)C)c3nccc4cc(N5CCC5)ccc34)cc2)cc1C` [Compound 6.04, N-(6-(Azetidin-1-yl)isoquinolin-1-yl)-N-((4′-methoxy-3′-methyl-[1,1′-biphenyl]-4-yl)methyl)-3,3-dimethylbutanamide], no less than 6.00; that for `COCCCOc1ccc2c(N(Cc3ccc(-c4ccc(OC)c(C)c4)cc3)C(=O)CC(C)(C)C)nccc2c1` [Compound 8.08, N-((4′-Methoxy-3′-methyl-[1,1′-biphenyl]-4-yl)methyl)-N-(6-(3-methoxypropoxy)isoquinolin-1-yl)-3,3-dimethylbutanamide], no less than 6.00.

Take `COc1ccc(-c2ccc(CN(C(=O)CC(C)(C)C)c3nccc4cc(OC(C)CCO)ccc34)cc2)cc1C` (stereo not drawn) [Compound 10.01, N-(6-((4-Hydroxybutan-2-yl)oxy)isoquinolin-1-yl)-N-((4′-methoxy-3′-methyl-[1,1′-biphenyl]-4-yl)methyl)-3,3-dimethylbutanamide]: the negative logarithm of the EC50 (pEC50) was no less than 6.00.

The compound `COc1ccc(-c2ccc(CN(C(=O)CC(C)(C)C)c3nccc4cc(N5CCOCC5)ccc34)cc2)cc1C` [Compound 6.06, N-((4′-Methoxy-3′-methyl-[1,1′-biphenyl]-4-yl)methyl)-3,3-dimethyl-N-(6-morpholinoisoquinolin-1-yl)butanamide] showed a negative-log EC50 (pEC50) of no less than 6.00.

`COc1ccc(-c2ccc(CN(C(=O)CC(C)(C)C)c3nccc4cc(Br)ccc34)cc2)cc1C` [Compound 4, N-(6-Bromoisoquinolin-1-yl)-N-((4′-methoxy-3′-methyl-[1,1′-biphenyl]-4-yl)methyl)-3,3-dimethylbutanamide] showed a negative-log EC50 (pEC50) of no less than 6.00. `COc1ccc(-c2ccc(CN(C(=O)CC(C)(C)C)c3nccc4cc(COCCO)ccc34)cc2)cc1C` [Compound 2.02, N-(6-((2-Hydroxyethoxy)methyl)isoquinolin-1-yl)-N-((4′-methoxy-3′-methyl-[1,1′-biphenyl]-4-yl)methyl)-3,3-dimethylbutanamide] had a pEC50 of no less than 6.00. The compound `COc1ccc(-c2ccc(CN(C(=O)CC(C)(C)C)c3nccc4cc(/C=C\CO)ccc34)cc2)cc1C` [Compound 22, (Z)-N-(6-(3-Hydroxyprop-1-en-1-yl)isoquinolin-1-yl)-N-((4′-methoxy-3′-methyl-[1,1′-biphenyl]-4-yl)methyl)-3,3-dimethylbutanamide] had a negative-log EC50 (pEC50) of no less than 6.00.

In the case of `COc1ccc(-c2ccc(CN(C(=O)CC(C)(C)C)c3nccc4sccc34)cc2)cc1C` [Compound 4.05, N-((4′-Methoxy-3′-methyl-[1,1′-biphenyl]-4-yl)methyl)-3,3-dimethyl-N-(thieno[3,2-c]pyridine-4-yl)butanamide], the negative-log EC50 (pEC50) was no less than 6.00. The result for `COc1ccc(-c2ccc(CN(C(=O)CC(C)(C)C)c3nccc4ccc(Br)cc34)cc2)cc1C` [Compound 4.06, N-(7-Bromoisoquinolin-1-yl)-N-((4′-methoxy-3′-methyl-[1,1′-biphenyl]-4-yl)methyl)-3,3-dimethylbutanamide] reads no less than 6.00; that for `COc1ncc(-c2ccc3c(N(Cc4ccc(-c5ccc(OC)c(C)c5)cc4)C(=O)CC(C)(C)C)nccc3c2)s1` [Compound 15, N-((4′-Methoxy-3′-methyl-[1,1′-biphenyl]-4-yl)methyl)-N-(6-(2-methoxythiazol-5-yl)isoquinolin-1-yl)-3,3-dimethylbutanamide], 5.00 to 6.00.

The record behind these values is US20200131132A1, “FARNESOID X RECEPTOR AGONISTS AND USES THEREOF” (Metacrine, Inc., priority 2017, published 2020).
